Assay results taken from patent EP0684818B1, “METHOD OF REVERSING RESISTANCE OF HIV-1 STRAINS TO ZIDOVUDINE” (priority 1993, dated 1994).
In brackets after ≈: the same amount, converted by molar mass. Several values for one entry are separate records, joined by “and”; a condition that tells them apart may be missing. Equal values may be shown once. Read-outs that look alike come from different tables or passages of the source.

Assays:
[1] = tested on: HIV isolates from the patient; experiment: Sensitivity of HIV isolates from the patient to antiviral compounds (p24 antigen production in co-culture with PHA-stimulated donor lymphocytes); format: cell-based, HIV-1; conditions: for IC50: mutations I135T, Q207E, T215F, K219Q, 50% inhibition of p24 antigen production, repeated experiment nos.
Description: A standard HIV-1 isolation from fresh lymphocytes and fresh plasma was performed at several time points (two months (60 days) before the start of therapy, 1 month (30 days) and 4 months (120 days) after start of the therapy).
Plasma or lymphocytes from the patient were co-cultured with 3·10^6 PHA stimulated (phytohemagglutinin, Sigma, St. Louis, Mo., USA) HIV-1 negative donor lymphocytes. Cultures were performed in a 5% CO2 atmosphere at 37°C. Medium was replaced every 3 to 4 days. When cell death occured, fresh PHA-stimulated donor lymphocytes were added. Every 3 to 4 days, the cultures were monitored for cytopathic effect and for the presence of HIV-1 p24 antigen in the supernatant. Cultures were followed during 5 weeks. A sample was considered positive for virus if the concentration of p24 antigen in the supernatant of the co-culture (determined by a p24 antigen capture test) exceeded 1000 pg per milliliter on a single determination or > 200 pg per milliliter on two consecutive determinations. Supernatants of positive isolates were aliquoted and frozen at -70°C.
(§1) An aliquot of a positive isolate was co-cultured with several cultures of PHA-stimulated donor lymphocytes. Serial dilutions of the antiviral compound (α-[(2-nitrophenyl)-amino]-2,6-dichlorobenzeneacetamide (Co. I) or zidovudine) were added to the cultures. Cultures were performed in a 5% CO2 atmosphere at 37°C. Medium and drugs were replaced every 3 to 4 days. When cell death occured, fresh PHA-stimulated donor lymphocytes were added. The cultures were monitored for cytopathic effect and for the presence of p24 antigen in the supernatant. When p24 levels produced in the controls (without antiviral compound) exceeded 1000 pg per milliliter, a p24 antigen test was performed on all cultures treated with antivirals The concentration of antiviral compound that was needed to inhibit 50% of p24 antigen production of the controls, was calculated (IC50). The sensitivity of the isolates obtained from the patient was determined on several occasions at different times (experiment nos.). The nucleotide sequence of the reverse transcriptase was determined in order to identify mutations selected by exposure of the retrovirus to Co. I. The results obtained thus far are shown in table 1.

Wild-type Strain IIIB = experiment: Sensitivity of wild-type HIV-1 strain to antiviral compounds (p24 antigen production in PHA-stimulated donor lymphocytes); format: cell-based; conditions: 50% inhibition of p24 antigen production, repeated experiment nos.
Description: as §1

[2] = isolate after four months of Co. I therapy, novel mutation Y181C
[3] = isolate obtained two months before the therapy switch

Compound | sensitivity of the HIV-1 isolate (in words) [1, 2] | sensitivity of the HIV-1 isolate (in words) [1, 3] | IC50 ([1]; patient isolate at time 120 days after start of Co. I therapy (400 mg t.i.d., po), Y181C) [µg/mL] | IC50 ([1]; patient isolate at time -60 days (two months before start of Co. I therapy)) | IC50 (Wild-type Strain IIIB) | IC50 (Wild-type Strain IIIB; Human immunodeficiency virus 1, IIIB, Lymphocyte, read-out: IC50) [µg/mL]
NC(=O)C(Nc1ccccc1[N+](=O)[O-])c1c(Cl)cccc1Cl (stereo not drawn) [Co.I, α-[(2-nitrophenyl)amino]-2,6-dichlorobenzeneacetamide] | resistant | sensitive | >10 | 0.041 µg/mL and 0.07 µg/mL and 0.073 µg/mL and 0.054 µg/mL | – | –
Cc1cn([C@H]2C[C@H](N=[N+]=[N-])[C@@H](CO)O2)c(=O)[nH]c1=O [zidovudine, 3'-azido-3'-deoxythymidine] | acquired again significant sensitivity | resistant | – | – | 0.001 µg/mL and 0.0008 µg/mL | 0.0011 (≈ 4.12 nM)
